What was measured:
[1] = test system: SOD1(G93A) transgenic mouse model of ALS; conditions: both gender; for Age of Disease Onset, Mean age / Age of First Paresis, Mean age / Disease Endstage - Survival, Mean age: treatment from day 45; for Age of Disease Onset, Mean age: riluzole 35 mg/kg day and neramexane (dosage adapted to gender, 50 male/150 female) in drinking water, memantine 20 mg/kg day s.c.; for Age of First Paresis, Mean age / Disease Endstage - Survival, Mean age: same doses as Table 1; for Age of Disease Onset, Difference compared to control: versus vehicle control mean 106.6; for Age of First Paresis, Difference compared to control: versus vehicle control mean 119.7; for Disease Endstage - Survival, Difference compared to control: versus vehicle control mean […]
[2] = test system: SOD1(G93A) transgenic mouse model of ALS; assay: Motor performance in the running wheel, SOD1(G93A) ALS mouse model; type: in vivo; conditions: for Disease Progression (Rev's per 12 hours/day) / Half Maximum Performance / Presymptomatic Performance (Rev's per 12 hours): both gender; for Half Maximum Performance, Difference: versus vehicle control 106.1; for Presymptomatic Performance, Difference (rp 12 hours): versus vehicle control 19,518; for Disease Progression, Difference: versus vehicle control −17.862
Procedure: Drug treatment starts at day 45.
Memantine is supplied by MERZ pharmaceuticals. […] Drugs are dissolved in drinking water. […] Memantine is administered twice a day subcutaneously.
Consumption of drinking water is checked randomly.
4. Motor Performance in the running wheel

[3] = test system: SOD1(G93A) ALS-mouse model; conditions: Wang et al. 2005; cited from earlier work

Compound | Age of Disease Onset, Median age [1] [days] | Age of First Paresis, Median age [1] [days] | Disease Endstage - Survival, Median age [1] [days] | Age of Disease Onset, Mean age [1] [days] | Age of First Paresis, Mean age [1] [days] | Disease Endstage - Survival, Mean age [1] [days] | Age of Disease Onset, Difference compared to control [1] [days] | Age of First Paresis, Difference compared to control [1] [days] | Disease Endstage - Survival, Difference compared to control [1] [days] | Disease Progression (Rev's per 12 hours/day) [2] [Rev's per 12 hours/day] | Half Maximum Performance [2] [days] | Presymptomatic Performance (Rev's per 12 hours) [2] | Half Maximum Performance, Difference [2] [days] | Presymptomatic Performance, Difference (rp 12 hours) [2] | Disease Progression, Difference [2] | Effects regarding disease progression and survival [3]
CC1(C)CC(C)(C)CC(C)(N)C1 [Neramexane, 1-amino-1,3,3,5,5-pentamethylcyclohexane] | 107.0 | 124.0 | 135.0 | 107.8 | 123.7 | 135.1 | 1.2 | 4.0 | 5.8 | −16.108 | 109.2 | 21,096 Rev's per 12 hours | 3.1 | 1,578 rp 12 hours | 1.754 | 
CC12CC3CC(C)(C1)CC(N)(C3)C2 [Memantine] | 107.5 | 123.0 | 134.0 | 108.5 | 123.7 | 134.4 | 1.9 | 4.0 | 5.1 | −22.528 | 110.5 | 10,784 Rev's per 12 hours | 4.4 | −8,734 rp 12 hours | −4.666 | positive effects
Nc1nc2ccc(OC(F)(F)F)cc2s1 [Riluzole, 2-amino-6-trifluromethoxybenzothiazole] | 105.0 | 119.0 |  | 106.3 | 120.0 |  | -0.3 | 0.3 |  | −14.015 |  | 20,565 Rev's per 12 hours |  | 1,047 rp 12 hours | 3.847 | 
